# System: soil nitrification: conversion of ammonium-N(NH4+) into nitrate-N(NO3−), Tujunga loamy sand
# Conditions: for nitrification inhibition (slowing the conversion of ammonium-N into nitrate-N), in words: text on Experiments 1 and 2
# Text: Two soils were used in this experiment, a Tujunga loamy sand (thermic Typic Xeropsamments) collected in Dinuba, California along with a Clarion fine loam (mesic Typic Hapludolls), collected in Boone, Iowa.
# Each soil was collected by hand from the top 15 mm of the soil profile and allowed to air-dry. Both soils were hand screened to remove large clumps and rocks that may have interfered with the experiment. Soil samples were taken before the start of the experiment and analyzed to assess the initial nutrient content and pH of the soil.
# The experiments were made up of numerous individual plastic containers that each represented one (1) replicate of each fertilizer treatment and soil. All experiments were arranged as a completely randomized design consisting of 12-20 fertilizer treatments, two soils, with six replicates.
# To begin the experiment, 200 g of the dried and screened soil was added to a 709 mL sealable plastic container. Distilled water was added to each container to bring the moisture level up to what would be considered optimal field moisture. It was important to determine this for each soil separately to ensure neither soil was too dry or too moist. This volume ranged from 15-25 ml per container with the Clarion soil being the highest. Once the appropriate amount of water was applied to each container, they were thoroughly stirred to ensure uniform mixing and to eliminate any clumps.
# After the soil containers were filled and moistened, the individual liquid fertilizer treatments were prepared in a 100 ml Erlenmeyer flask. All treatments were applied as liquids to ensure uniform mixing and accurate applications. For some of the treatments a 20%-N urea solution was used as the primary nitrogen source. […]
# All fertilizer treatments were made to the soil surface in each container using a micropipette at a nitrogen rate of 134.7 kg ha^−1 calculated on the surface area of each container which equals 125.8 cm^2. […]
# Soil samples were initially taken at one (1) day after treatment (DAT). […] The difference in mass is recorded and used in later calculations. […]
Compound,"nitrification inhibition (slowing the conversion of ammonium-N into nitrate-N), in words","""nitrate levels"" (nitrite+nitrate levels) in the soil (after 8 weeks)"
"N.N.O=S(=O)(O)O [ammonium sulfates, ammonium sulfate]",did not work,–
"NC(N)=O [unprotected urea, Urea]",–,≥ 300 ppm
O=S([O-])O.[K+] [potassium bisulfite],did not work,–

# — patent US20240116832A1, “INHIBITORS OF SOIL NITRIFICATION AND PROCESSES TO PREVENT SAME” (Tessenderlo Group NV, priority 2019, published 2024)
